In patent US9029377B2, “Platelet-activating factor receptor antagonists” (Merck Sharp & Dohme Corp., priority 2009, dated 2015):

Molecular target: PAFR (Homo sapiens, UniProt P25105)
Assay: PAF Binding Assay (PAFR binding)

Chain of PAFR (P25105 whole entry): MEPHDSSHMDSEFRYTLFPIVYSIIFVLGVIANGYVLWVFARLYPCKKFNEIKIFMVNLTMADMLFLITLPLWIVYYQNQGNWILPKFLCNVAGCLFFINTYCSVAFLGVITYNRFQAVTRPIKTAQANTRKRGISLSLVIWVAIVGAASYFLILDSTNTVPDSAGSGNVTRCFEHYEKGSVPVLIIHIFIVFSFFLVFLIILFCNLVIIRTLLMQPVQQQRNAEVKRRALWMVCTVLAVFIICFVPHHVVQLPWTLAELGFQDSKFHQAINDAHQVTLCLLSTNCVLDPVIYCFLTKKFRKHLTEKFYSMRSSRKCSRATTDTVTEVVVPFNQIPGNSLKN

Molecule | IC50
3-isoxazol-5-yl-N-[(1R,5S)-3,3-difluoro-5-(3-methyl-4H-1,2,4-triazol-4-yl)cyclohexyl]-5-(trifluoromethyl)benzenesulfonamide [Compound 9Ad] | 34 nM
O=S(=O)(N[C@H]1CCC[C@@H](n2cnnc2)C1)c1cc(-c2cccs2)cc(C(F)(F)F)c1 [Compound 3Aas, 3-(2-thienyl)-N-[(1S,3R)-3-(4H-1,2,4-triazol-4-yl)cyclohexyl]-5-(trifluoromethyl)benzenesulfonamide] | 3.8 nM
O=S(=O)(N[C@H]1CCC[C@@H](n2cnnc2)C1)c1c(C2CC2)cc(-c2noc(C3CC3)n2)cc1C1CC1 [Compound 2Ra, 2,6-dicyclopropyl-4-(5-cyclopropyl-1,2,4-oxadiazol-3-yl)-N-[(1S,3R)-3-(4H-1,2,4-triazol-4-yl)cyclohexyl]benzenesulfonamide] | 2.4 nM
O=S(=O)(N[C@H]1CCC[C@@H](n2cnnc2)C1)c1cc(-c2cc(Cl)cnc2F)cc(C(F)(F)F)c1 [Compound 3Aab, 3-(5-chloro-2-fluoropyridin-3-yl)-N-[(1S,3R)-3-(4H-1,2,4-triazol-4-yl)cyclohexyl]-5-(trifluoromethyl)benzenesulfonamide] | 4 nM
O=S(=O)(N[C@H]1CCC[C@@H](n2cnnc2)C1)c1cc(-c2cncc(F)c2)cc(C(F)(F)F)c1 [Compound 3Aac, 3-(5-fluoropyridin-3-yl)-N-[(1S,3R)-3-(4H-1,2,4-triazol-4-yl)cyclohexyl]-5-(trifluoromethyl)benzenesulfonamide] | 20 nM
CCc1cc(-c2c(C)noc2C)ccc1S(=O)(=O)N[C@H]1CCC[C@@H](n2cnnc2)C1 [Compound 2Az, 4-(3,5-dimethylisoxazol-4-yl)-2-ethyl-N-[(1S,3R)-3-(4H-1,2,4-triazol-4-yl)cyclohexyl]benzenesulfonamide] | 48 nM
CCc1cc(-c2noc(C3CC3)n2)ccc1S(=O)(=O)N[C@H]1CCC[C@@H](n2cnnc2C2CC2)C1 [Compound 2Ab, 4-(5-cyclopropyl-1,2,4-oxadiazol-3-yl)-2-ethyl-N-[(1S,3R)-3-(3-cycloropyl-4H-1,2,4-triazol-4-yl)cyclohexyl]benzenesulfonamide] | 3.2 nM

The next lines start with the values.

IC50 | Molecule
25 nM | CC(C)Oc1ccc(S(=O)(=O)N[C@H]2CCC[C@@H](n3cnnc3)C2)cc1 [Compound 2Mz, 4-isopropoxy-N-[(1S,3R)-3-(4H-1,2,4-triazol-4-yl)cyclohexyl]benzenesulfonamide]
30 nM | O=S(=O)(N[C@H]1CCC[C@@H](n2cnnc2)C1)c1cccc(-c2ccccc2)c1 [Compound 2Mg, N-[(1S,3R)-3-(4H-1,2,4-triazol-4-yl)cyclohexyl]biphenyl-3-sulfonamide]
1 nM | Cc1nncn1[C@@H]1CCC[C@H](NS(=O)(=O)c2ccc(-c3ccc(OCC(F)(F)F)nc3)c(F)c2)C1 [Compound 2Ff, 3-fluoro-N-[(1S,3R)-3-(3-methyl-4H-1,2,4-triazol-4-yl)cyclohexyl]-4-[6-(2,2,2-trifluoroethoxy)pyridin-3-yl]benzenesulfonamide]
27 nM | CCc1cc(-c2cccnc2OC)ccc1S(=O)(=O)N[C@H]1CCC[C@@H](n2cnnc2)C1 [Compound 2Aq, 2-ethyl-4-(2-methoxypyridin-3-yl)-N-[(1S,3R)-3-(4H-1,2,4-triazol-4-yl)cyclohexyl]benzenesulfonamide]
3.6 nM | Cc1nncn1[C@@H]1CCC[C@H](NS(=O)(=O)c2ccc(-c3ccc(OC(C)C)nc3)c(F)c2)C1 [Compound 2Fe, 3-fluoro-4-(6-isopropoxypyridin-3-yl)-N-[(1S,3R)-3-(3-methyl-4H-1,2,4-triazol-4-yl)cyclohexyl]benzenesulfonamide]
9.9 nM | CCc1cc(-c2ccc(OC)nc2)ccc1S(=O)(=O)N[C@H]1CCC[C@@H](n2cnnc2)C1 [Compound 2Ag, 2-ethyl-4-(6-methoxypyridin-3-yl)-N-[(1S,3R)-3-(4H-1,2,4-triazol-4-yl)cyclohexyl]benzenesulfonamide]
